Laboratory results taken from PMC12677607, “Identification of a Pair of Linear or Cyclic Naturally Inspired Bifunctional Lipopeptide Antibiotics That Overcome Antimicrobial Resistance” (Advanced Science, 2025).
Converted amounts (≈) assume the structure as drawn. Bridge positions count the residues as written; N and C are the ends. Square brackets hold non-standard residues; d marks the D form. Peptide text beside a SMILES is read from it. * marks the point of attachment. Myristoyl = CCCCCCCCCCCCCC(=O)*; Orn = NCCC[C@H](N)C(=O)O; Dab = NCC[C@H](N)C(=O)O; Dap = NC[C@H](N)C(=O)O

What was measured:
Format in all cases: cell-based
S. aureus USA300 [1] = assay: Membrane component feeding assay; settings: for inhibition of antibacterial activity by MK, UQ or PC: feeding 2 to 128 µg mL^−1, S. aureus USA300 (PC also E. coli DH5α), Figure S125
Protocol: The effects of bacterial membrane components on aquicidine L's or aquicidine C4's anti‐bacterial activities were evaluated using E. coli DH5α or S. aureus USA300. […] All experiments were done in triplicate (n = 3) and repeated two independent times (n = 2).

S. aureus USA300 [2] = assay: Membrane depolarization assay (DiSC3(5)); settings: S. aureus USA300 in PBS, 4 × MIC, n = 2
Protocol: Bacterial membrane depolarization assay was performed in 384‐well black microtiter plates. Overnight cell cultures of S. aureus USA300 were collected and resuspended in PBS buffer to an OD600 of 0.5. Then, 100 µL of the diluted cell suspension and 50 µL of 20 µM DiSC3(5) dye were added to 300 µL of PBS buffer, which was incubated for 15 min at room temperature in the dark. 50 µL of 2 M KCl was then added and incubated for another 15 min. Fluorescence intensity was determined continually at 2 s intervals (Ex/Em 643/675 nm) using a Tecan spark multimode microplate reader. When the signal stabilized, the appropriate amount of aquicidine L or aquicidine C4 (6.4 mg mL^−1 in DMSO, 4 × MIC) was added. DMSO and daptomycin were used as negative and positive controls, respectively. Data were shown as the relative intensity with respect to the average fluorescence signal prior to the addition of each compound. All assays were performed two independent times (n = 2), and a representative fluorescence recording was presented.

E. coli DH5α = assay: Bactericidal effects / cell lysis in E. coli; settings: after 12 h at 16× MIC, Figure S123a
[3] = tested on: Staphylococcus aureus ATCC 6538; assay: microbe, parasite or virus in culture; settings: ATCC 6538, 16 h
Procedure, shortened: (§1)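 Growth inhibition read visually; MIC taken as lowest inhibitory concentration. LB medium; inocula from overnight cultures diluted 5000-fold, S. aureus 10000-fold. Peptide range 64 to 0.125 µg mL^−1 (2-fold, pre-mix), two independent determinations.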

[4] = tested on: Vibrio alginolyticus XSBZ14; assay: microbe, parasite or virus in culture; settings: 16 h
Procedure, shortened: as §1

[5] = tested on: Klebsiella pneumoniae NCTC 5056; assay: microbe, parasite or virus in culture; settings: NCTC 5056, 16 h
Procedure, shortened: as §1

[6] = tested on: Staphylococcus aureus ATCC 25923; assay: microbe, parasite or virus in culture; settings: ATCC 25923, 16 h
Procedure, shortened: as §1

[7] = tested on: Streptococcus pyogenes ATCC 19615; assay: microbe, parasite or virus in culture; settings: Table S11; LB broth, 37 °C, 16 h, n = 2
Procedure, shortened: as §1

[8] = tested on: Enterococcus faecium 35682; assay: microbe, parasite or virus in culture; settings: Table S11; LB broth, 37 °C, 16 h, n = 2
Procedure, shortened: as §1

[9] = tested on: Klebsiella pneumoniae CRKP HS11286; assay: microbe, parasite or virus in culture; settings: for MIC Klebsiella pneumoniae CRKP HS11286: CRKP HS11286, 16 h
Procedure, shortened: as §1

[10] = tested on: Klebsiella pneumoniae CRKP 5452; assay: microbe, parasite or virus in culture; settings: for MIC Klebsiella pneumoniae CRKP 5452: Table S11, LB broth, 37 °C, 16 h, n = 2
Procedure, shortened: as §1

[11] = tested on: Pseudomonas aeruginosa ATCC 9027; assay: microbe, parasite or virus in culture; settings: ATCC 9027, 16 h
Procedure, shortened: as §1

[12] = tested on: Klebsiella pneumoniae ATCC 13883; assay: microbe, parasite or virus in culture; settings: ATCC 13883, 16 h
Procedure, shortened: as §1

[13] = tested on: Staphylococcus aureus Newman; assay: microbe, parasite or virus in culture; settings: Newman, 16 h
Procedure, shortened: as §1

[14] = tested on: Enterococcus faecalis ATCC 29212; assay: microbe, parasite or virus in culture; settings: ATCC 29212, 16 h
Procedure, shortened: as §1

Enterococcus faecalis 28 = assay: microbe, parasite or virus in culture; settings: 28, 16 h
Procedure, shortened: as §1

[15] = tested on: Pseudomonas aeruginosa PAO1; assay: microbe, parasite or virus in culture
Procedure, shortened: as §1

[16] = tested on: Staphylococcus aureus USA300; assay: microbe, parasite or virus in culture; settings: for MIC Staphylococcus aureus USA300: Table S11, LB broth, 37 °C, 16 h, n = 2
Procedure, shortened: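 MIC = lowest peptide concentration with no visible growth; LB broth microdilution, n = 2. Inoculum: overnight culture diluted 5000× (S. aureus 10000×). Peptides serially diluted 2-fold, 64–0.125 µg mL^−1 in the broth added to cells.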

[17] = tested on: Salmonella typhimurium LXX; assay: microbe, parasite or virus in culture; settings: murium LXX, 16 h
Procedure, shortened: as §1

[18] = tested on: Acinetobacter baumannii 1104008; assay: microbe, parasite or virus in culture; settings: Table S11; LB broth, 37 °C, 16 h, n = 2
Procedure, shortened: as §1

[19] = tested on: Acinetobacter baumannii ATCC 19606; assay: microbe, parasite or virus in culture; settings: ATCC 19606, 16 h
Procedure, shortened: as §1

Enterococcus faecalis 26 = assay: microbe, parasite or virus in culture; settings: 26, 16 h
Procedure, shortened: as §1

[20] = tested on: Salmonella enterica ATCC 14028; assay: microbe, parasite or virus in culture; settings: ATCC 14028, 16 h
Procedure, shortened: as §1

[21] = tested on: Streptococcus mutans ATCC 25175; assay: microbe, parasite or virus in culture; settings: ATCC 25175, 16 h
Procedure, shortened: as §1

[22] = tested on: Acinetobacter baumannii ATCC 17978; assay: microbe, parasite or virus in culture; settings: ATCC 17978, 16 h
Procedure, shortened: as §1

Structure (SMILES)	inhibition of antibacterial activity by MK, UQ or PC (S. aureus USA300 [1])	DiSC3(5) fluorescence (membrane depolarization) (S. aureus USA300 [2])	cell lysis in E. coli (E. coli DH5α)	MIC Staphylococcus aureus ATCC 6538 [3]	MIC Vibrio alginolyticus XSBZ14 [4]	MIC Klebsiella pneumoniae NCTC 5056 [5]	MIC Staphylococcus aureus ATCC 25923 [6]	MIC Streptococcus pyogenes ATCC 19615 [7]	MIC Enterococcus faecium 35682 [8]	MIC Klebsiella pneumoniae CRKP HS11286 [9]	MIC Klebsiella pneumoniae CRKP 5452 [10]	MIC Pseudomonas aeruginosa ATCC 9027 [11]	MIC Klebsiella pneumoniae ATCC 13883 [12]	MIC Staphylococcus aureus Newman [13]	MIC Enterococcus faecalis ATCC 29212 [14]	MIC Enterococcus faecalis 28 (Enterococcus faecalis 28)	MIC Staphylococcus aureus USA300 [16]	MIC Salmonella typhimurium LXX [17]	MIC Acinetobacter baumannii 1104008 [18]	MIC Acinetobacter baumannii ATCC 19606 [19]	other results
CCCCCCCCCCCCCC(=O)N[C@@H](CN)C(=O)N[C@H](C(=O)N[C@@H](CC(C)C)C(=O)N[C@@H](CO)C(=O)N[C@@H](CCN)C(=O)N[C@@H](CN)C(=O)N[C@@H](Cc1ccccc1)C(=O)N[C@H](C(=O)N[C@@H](CCCN)C(=O)N[C@@H](CC(N)=O)C(=O)N[C@@H](Cc1ccccc1)C(=O)O)[C@@H](C)CC)[C@@H](C)O [synAQU5-L] (Myristoyl-[Dap]TLS[Dab][Dap]FI[Orn]NF-OH)	did not show dose‐dependent inhibition	not aquicidine L caused a significant increase	significantly led to cell lysis	16 µg/mL (≈ 11.1 µM)	8 µg/mL (≈ 5.56 µM)	8 µg/mL (≈ 5.56 µM)	32 µg/mL (≈ 22.3 µM)	8 µg/mL (≈ 5.56 µM)	16 µg/mL (≈ 11.1 µM)	4 µg/mL (≈ 2.78 µM)	4 µg/mL (≈ 2.78 µM)	4 µg/mL (≈ 2.78 µM)	8 µg/mL (≈ 5.56 µM)	32 µg/mL (≈ 22.3 µM)	32 µg/mL (≈ 22.3 µM)	16 µg/mL (≈ 11.1 µM)	16 µg/mL (≈ 11.1 µM)	8 µg/mL (≈ 5.56 µM)	4 µg/mL (≈ 2.78 µM)	8 µg/mL (≈ 5.56 µM)	antibacterial activity (MIC) K. pneumoniae CRKP HS11286 ([9]; Figure S127a): 4 µg/mL; antibacterial activity (MIC) K. pneumoniae CRKP 5452 ([10]; Figure S127a, wild type): 4 µg/mL; MIC Pseudomonas aeruginosa PAO1 ([15]; Table S11, LB broth, 37 °C, 16 h, n = 2): 4 µg/mL (≈ 2.78 µM); MIC Enterococcus faecalis 26 (Enterococcus faecalis 26): 8 µg/mL (≈ 5.56 µM); MIC Salmonella enterica ATCC 14028 [20]: 4 µg/mL (≈ 2.78 µM); MIC Streptococcus mutans ATCC 25175 [21]: 16 µg/mL (≈ 11.1 µM); MIC Acinetobacter baumannii ATCC 17978 [22]: 4 µg/mL (≈ 2.78 µM)
CCCCCCCCCCCCCC(=O)N[C@@H](CN)C(=O)N[C@H](C(=O)N[C@@H](CC(C)C)C(=O)N[C@H]1COC(=O)[C@H](Cc2ccccc2)NC(=O)[C@H](CC(N)=O)NC(=O)[C@H](CCCN)NC(=O)[C@H]([C@@H](C)CC)NC(=O)[C@H](Cc2ccccc2)NC(=O)[C@H](CN)NC(=O)[C@H](CCN)NC1=O)[C@@H](C)O [synAQU5-C4] (Myristoyl-[Dap]TLS[Dab][Dap]FI[Orn]NF; ester 4-C)	did not show dose‐dependent inhibition	significant increase	slightly led to cell lysis	4 µg/mL (≈ 2.82 µM)	32 µg/mL (≈ 22.5 µM)	> 64 µg/mL	4 µg/mL (≈ 2.82 µM)	2 µg/mL (≈ 1.41 µM)	4 µg/mL (≈ 2.82 µM)	32 µg/mL (≈ 22.5 µM)	32 µg/mL (≈ 22.5 µM)	16 µg/mL (≈ 11.3 µM)	> 64 µg/mL	4 µg/mL (≈ 2.82 µM)	4 µg/mL (≈ 2.82 µM)	4 µg/mL (≈ 2.82 µM)	4 µg/mL (≈ 2.82 µM)	32 µg/mL (≈ 22.5 µM)	16 µg/mL (≈ 11.3 µM)	32 µg/mL (≈ 22.5 µM)	inhibition of antibacterial activity by CL and PG (S. aureus USA300 [1]; feeding 2 to 128 µg mL^−1, S. aureus USA300, Figure 5d): stronger dose‐dependent inhibition; MIC Pseudomonas aeruginosa PAO1 ([15]; PAO1, 16 h): 32 µg/mL (≈ 22.5 µM); antibacterial activity (MIC) S. aureus USA300 ([16]; Figure S127b, wild type): 4 µg/mL; MIC Enterococcus faecalis 26 (Enterococcus faecalis 26): 2 µg/mL (≈ 1.41 µM); MIC Salmonella enterica ATCC 14028 [20]: 32 µg/mL (≈ 22.5 µM); MIC Streptococcus mutans ATCC 25175 [21]: 4 µg/mL (≈ 2.82 µM); MIC Acinetobacter baumannii ATCC 17978 [22]: 32 µg/mL (≈ 22.5 µM)
